Measured values published in patent US7105566B2, “Methods of treatment during vascular procedures” (Allergan, Inc., priority 2002, dated 2006).
Where “and” joins values, the source holds several entries; their conditions need not be identical. Equal entries are not always repeated.

Assays:
[1] = system: chronic hypertriglyceridemic patients; conditions: de Man et al. 2000; cited from earlier work
[2] = system: male SJL mice; test: Serum triglycerides (STG) in male SJL mice; format: in vivo, mouse
Procedure: Male SJL mice were dosed orally with vehicle, Compound 1 (an RAR pan-antagonist), or Compound 3 (an RARE antagonist) for 4 consecutive days. The structure and synthesis of Compound 1 is described in Example I. The structure of Compound 3 is shown below, and the compound was synthesized using routine methods:
The test compounds were dissolved in corn oil and given at a dosage/volume of 20 mg/5 ml/kg.
On day 3, serum triglycerides (STG) were determined from samples collected at 7 a.m.
(§1) On day 4, animals were fasted after dosing, starting at 8 a.m. Following 6 hours of fasting, blood samples were collected prior to intravenous injection of WR-1339 at 100 mg/5 ml/kg. Additional serum samples were collected at 1 and 2 hours after WR-1339 injection. WR-1339 is a detergent that inactivates lipoprotein lipase and thus prevents the removal of triglycerides from circulation. By measuring the increase of STG after WR-1339 administration in fasted animals, the hepatic triglyceride (HTG) output during fasting can be estimated.
(§2) Due to the lack of effect of Compound 3 at 20 mg/kg, the dose was increased to 100 mg/kg in the same set of mice. STG was determined on day 3 prior to dosing (Day 3, 8 a.m.). […] To ensure that Compound 3 would be bioavailable, Compound 3 was dissolved in DMSO and given by intraperitoneal injections, once at 4 p.m. on day 3 and once at 8 a.m. on day 4, at a dosage of 100 mg/kg/injection. Administration of WR-1339 and blood collections on day 4 were similarly conducted as described above.

[3] = system: male SJL mice; test: Hepatic triglyceride (HTG) output after WR-1339 injection in fasted male SJL mice; format: in vivo, mouse
Procedure: as §1, §2

[4] = system: female ZDF rats; test: Serum triglycerides and cholesterol in female ZDF rats, Compound 1 and Compound 2 at 10 mg/kg; format: in vivo, rat; conditions: 10 mg/kg oral
Procedure: A similar experiment to that described above was performed. Briefly, female ZDF rats (12 weeks old) were fed either a PM 5008 diet or a GMI 13004 diet. Control vehicle consisted of 2% DMSO and 98% corn oil. Compound 1 and Compound 2 were administered at a dosage of 10 mg/kg body weight. Dosings were administered at approximately 8 a.m. Serum was collected on the first day of dosing at approximately 8 a.m. (Day 1, 0 hour) and 2 p.m. (Day 1, 6 hour); the fourth day of dosing at approximately 8 a.m. (Day 4, 0 hour); and the last day of dosing at approximately 8 a.m. (Day 7, 0 hour) and 2 p.m. (Day 7, 6 hour). The levels of triglycerides and cholesterol in the serum samples were measured. The results are shown in Table 2 and are illustrated graphically in FIGS. 3A and 3B.

[5] = GMI 13004 diet, group mean of 5 rats, first day of dosing, 2 p.m.
[6] = GMI 13004 diet, group mean of 5 rats, first day of dosing, about 8 a.m. (baseline)
[7] = GMI 13004 diet, group mean of 5 rats, fourth day of dosing, 8 a.m.
[8] = GMI 13004 diet, group mean of 5 rats, last day of dosing, 2 p.m.
[9] = GMI 13004 diet, group mean of 5 rats, last day of dosing, 8 a.m.
[10] = GMI 13004 diet, individual animals, first day of dosing, 2 p.m.
[11] = GMI 13004 diet, individual animals, first day of dosing, about 8 a.m. (baseline)
[12] = GMI 13004 diet, individual animals, fourth day of dosing, 8 a.m.
[13] = GMI 13004 diet, individual animals, last day of dosing, 2 p.m.
[14] = GMI 13004 diet, individual animals, last day of dosing, 8 a.m.

In the case of `CC(C)c1c(C(=O)Nc2ccccc2)c(-c2ccccc2)c(-c2ccc(F)cc2)n1CC[C@@H](O)C[C@@H](O)CC(=O)O` [atorvastatin], the “effect on impaired vasodilation” value [1] is given as “reverse the impaired vasodilation”.

For `Cc1ccc(C2=CCC(C)(C)c3cc(O)c(C(=O)Nc4ccc(C(=O)O)c(F)c4)cc32)cc1` [Compound 3], the “non-fasting STG (Day 3, 8 a.m.)” value ([2]; 20 mg/kg oral daily) was “not observed”, the “STG 16 hours after a single intraperitoneal dose (Day 4, 8 a.m.)” value ([2]; 100 mg/kg intraperitoneal in DMSO) was “clear lowering of STG” and the “STG on day 3 prior to dosing (Day 3, 8 a.m.)” value ([2]; 100 mg/kg oral) was “no lowering of STG was observed”. For the same compound, the “STG after fasting (Day 4, 2 p.m.)” value ([2]; 100 mg/kg/injection intraperitoneal) was “effect disappeared after fasting”, the “HTG output after WR-1339 injection” value ([3]; 20 mg/kg oral daily for 4 days, fasted) was “not observed” and the HTG output ([3]; 100 mg/kg/injection intraperitoneal, WR-1339, fasted) was “reduced”.

With `Cc1ccc(C2=CC(C)(C)Oc3c(Br)cc(C(=O)Nc4ccc(C(=O)O)c(F)c4)cc32)cc1` [Compound 2] the “effect on lowering serum cholesterol” value [4] was “more modest effect”, the “serum triglycerides as % of pre-treatment levels” value [4] was “about 40%” and the “Cholesterol day 1, 6 hr, Mean” value [4, 5] was 106. The “Triglycerides day 1, 6 hr, Mean” value [4, 5] was 1321, the “Cholesterol day 1, 0 hr, Mean” value [4, 6] was 119 and the “Triglycerides day 1, 0 hr, Mean” value [4, 6] was 1471. The “Cholesterol day 4, 0 hr, Mean” value [4, 7] was 77, the “Triglycerides day 4, 0 hr, Mean” value [4, 7] was 571 and the “Cholesterol day 7, 6 hr, Mean” value [4, 8] was 62. The “Triglycerides day 7, 6 hr, Mean” value [4, 8] was 602, the “Cholesterol day 7, 0 hr, Mean” value [4, 9] was 66 and the “Triglycerides day 7, 0 hr, Mean” value [4, 9] was 560. For the same compound, the “Cholesterol day 1, 6 hr” value [4, 10] was 114 and 84 and 90 and 108 and 132, the “Triglycerides day 1, 6 hr” value [4, 10] was 1260 and 1338 and 1140 and 1344 and 1524 and the “Cholesterol day 1, 0 hr” value [4, 11] was 120 (2×) and 96 (2×) and 162. For the same compound, the “Triglycerides day 1, 0 hr” value [4, 11] was 1464 and 1194 and 1284 and 1668 and 1746, the “Cholesterol day 4, 0 hr” value [4, 12] was 84 and 66 and 72 (2×) and 90 and the “Triglycerides day 4, 0 hr” value [4, 12] was 642 and 804 and 210 and 630 and 570. The “Cholesterol day 7, 6 hr” value [4, 13] was 72 and 60 (2×) and 54 and 66, the “Triglycerides day 7, 6 hr” value [4, 13] was 402 and 600 and 360 and 738 and 912 and the “Cholesterol day 7, 0 hr” value [4, 14] was 78 (2×) and 60 (2×) and 54. For the same compound, the “Triglycerides day 7, 0 hr” value [4, 14] was 294 and 588 and 474 and 726 and 720.
